Square brackets hold non-standard residues; d marks the D form. Ends that are not written are not given here. pS = N[C@@H](COP(=O)(O)O)C(=O)O
Key:
[1] = system: HLA-DR4; assay: Binding to human MHC class II molecule HLA-DR4; conditions: peptide 0.01-100 μM; FIG. 19
Method: (§1) FIG. 19: binding of the 131-151 and P140 peptides to the human major histocompatibility complex class II molecules; the results are expressed as a percentage of binding of the peptides to the HLA-DR1, -DR4 and DR11 molecules; the percentage inhibition is calculated as a function of the O.D. values measured in the presence of various concentrations of 131-151 and P140 peptides (0.01-100 μM).

[2] = system: CD4+ T cells of MRL/lpr lupic mice; assay: Recognition by CD4+ T cells of MRL/lpr lupic mice (ex vivo proliferation, IL-2 secretion); type: cell-based
Method: (§2) FIG. 1: recognition of the 131-151 peptide of the 70K protein by the CD4+ T cells of MRL/lpr (right column) or NZB/W lupic mice (left column); the peptide concentrations are indicated on the x-axis, the proliferation of the CD4+ T cells of MRL/lpr and BW mice, represented on the y-axis of the graphs of the first line, is measured ex vivo in the presence of the various concentrations of 131-151 peptide of the 70K protein; the proliferation is expressed in stimulation indices corresponding to the radioactivity incorporated in the DNA of the cells (in counts per minute) in the presence of peptide on the incorporation of radioactivity in the absence of peptide; the secretion of IL-2, represented on the y-axis of the graphs of the second line, is measured in the supernatants after 24 hrs of culture by a bio-assay; the IL-2 concentration is determined with a standard range of recombinant IL-2 and is expressed in mU/ml.
(§3) FIG. 13: recognition of the P140 peptide by the CD4^+ T lymphocytes (A) of MRL/lpr lupic mice; the graph on the left represents the proliferation of CD4^+ T cells expressed in stimulation indices as defined above in the presence of the 131-151 peptide, of the phosphorylated P137 and P140 peptides and of two scrambled peptides, phosphorylated or not phosphorylated (Sc and ScP); the positivity limit corresponds to 2.0; the graph on the right represents the secretion of IL-2 (mU/ml) in the presence of the 131-151 peptide, the P137 and P140 peptides and the Sc and ScP peptides; and by the antibodies (B) of MRL/lpr lupic mice; the results are expressed in titre of antibodies corresponding to the dilution allowing an O.D. value at 450 nm equal to 0.2 to be obtained in an ELISA test.

[3] = system: pre-autoimmune MRL/lpr mice; assay: Administration to pre-autoimmune MRL/lpr mice, monitoring of disease development; type: in vivo
Method: The two peptides (phosphorylated in position 140 and non-phosphorylated) were used for a study of restoration of self-tolerance. These two peptides were injected by intravenous and intra-nasal route into preautoimmune mice, and the development of the disease in these mice was monitored.

[4] = system: HLA-DR1; assay: Binding to human MHC class II molecule HLA-DR1; conditions: peptide 0.01-100 μM; FIG. 19
Method: as §1

[5] = system: HLA-DR11; assay: Binding to human MHC class II molecule HLA-DR11; conditions: peptide 0.01-100 μM; FIG. 19
Method: as §1

[6] = system: antibodies of MRL/lpr lupic mice; assay: Recognition by antibodies of MRL/lpr lupic mice (ELISA titre); type: binding; conditions: compared with the non-phosphorylated parent peptide; FIG. 13
Source text: as §3

[7] = system: CD4+ T cells of NZB/W lupic mice; assay: Recognition by CD4+ T cells of NZB/W lupic mice; type: cell-based; conditions: FIG. 1
Method: as §2

[8] = system: antibodies of MRL/lpr lupic mice; conditions: among 20 overlapping peptides of the 70K protein; cited from earlier work
[9] = system: major histocompatibility complex class II molecules (I-E^k, I-A^k, I-E^d, I-A^d); assay: Binding to murine MHC class II molecules (transfected fibroblasts, T hybridoma IL-2 competition); type: cell-based; conditions: murine (and human, as worded in b8); FIG. 2
Method: FIG. 2: binding of the 131-151 peptide to the molecules of the major histocompatibility complex of class II murines (I-E^k, I-A^k, I-E^d, I-A^d); fibroblasts transfected by the molecules I-E^k, or I-A^k, or I-E^d, or I-A^d are pre-incubated with different concentrations of the 131-151 peptide; after 30 minutes at 37° C., the 12-26CI or 16-33 analogue peptides of the β2-adrenergic receptor, as well as the respective T hybridomas which recognize these peptides in the adapted context (8I for I-E^k, E7E9 for I-A^k, 26.1 for I-E^d, and 26.2 for I-A^d) are added; the supernatants are recovered after 24 hrs of culture and the secretion of IL-2 is evaluated as previously; the results are expressed as a % inhibition representing the ability of the 131-151 peptide to inhibit the binding of the 12-26 CI and 16-33[…]2 analogue peptides to the class II molecules.

[10] = intravenous route, pre-autoimmune MRL/lpr mice, FIG. 14
[11] = in vitro, CD4+ T cells purified from the ganglia of MRL/lpr mice

Row | Substance | binding to HLA-DR4 [1] | recognition by the CD4+ T cells of lupic mice ([2]; compared with the non-phosphorylated parent peptide, FIG. 13) | appearance of glomerulonephritis ([3]; intranasal route, pre-autoimmune MRL/lpr mice, FIG. 14) | appearance of glomerulonephritis [3, 10] | production of antibodies directed against the DNA [3, 10] | survival of animals [3, 10] | binding to HLA-DR1 [4] | binding to HLA-DR11 [5] | recognition by the antibodies of lupic mice [6] | proliferation of CD4+ T cells [2, 11] | secretion of IL-2 by CD4+ T cells [2, 11] | proteinuria ([3]; group injected with the peptide, versus saline control) | effect of administration on anti-DNA antibodies, glomerulonephritis and survival ([3]; pre-autoimmune mice, listed as parent peptide) | mice survived ([3]; to 35 weeks, p=0.2 compared to the control mice) | epitope of the 70K protein in the NZB/W mouse [7] | recognition by the antibodies of MRL/lpr lupic mice [8] | binding to major histocompatibility complex class II molecules [9]
1 | P140: sequence SEQ ID NO: 1 (RIHMVYSKRSGKPRGYAFIEY) in which the serine in position 10 is phosphorylated (RIHMVYSKR[pS]GKPRGYAFIEY; listed as Homo sapiens) | capable of binding | to the same extent as or even to a greater extent than the non-phosphorylated peptide | not by intranasal route | delays the appearance of glomerulonephritis | reduces the production of large numbers of antibodies directed against the DNA | prolongs the survival of animals | capable of binding | capable of binding | to the same extent as or even to a greater extent than the non-phosphorylated peptide |  |  |  |  |  |  |  | 
2 | RIHMVYSKRSGKPRGYAFIEY (listed as Homo sapiens) [131-151] | capable of binding |  |  |  |  |  | capable of binding | capable of binding |  | capable of stimulating | capable of stimulating | hardly reduced | does not on the other hand induce any statistically significant effect | 25% | major epitope | recognized very early | capable of binding

— US8475800B2, “Phosphorylated derivatives of a U1-70K peptide and their use in the treatment of autoimmune pathologies” (Centre National de la Recherche Scientifique, priority 2001, dated 2013)
